# Patent US9784753B2, “Biological system to test in vitro if a substance is immune reactive” (priority 1996, dated 2017)
# What was measured:
# [1] = test system: frozen whole blood stimulated with LPS; assay: Modulation of LPS-stimulated IL-1 release in frozen whole blood; format: cell-based, human; conditions: depending on amount of substance administered; FIGS. 2 and 3
# Description: Citrated blood from healthy donors was mixed with 10% dimethylsulfoxide (Merck, Darmstadt) immediately after it was drawn. Aliquots of 100 microliters were distributed in 2 milliliter reaction vessels (Eppendorf, Hamburg) and transferred to a −70° C. cold box in a commercial freezing system (a person, Nalgene). Thawing was done in a thermoshaker (Eppendorf, Hamburg) at 37° C. Immediately after thawing, 900 microliters of RPMI 1640 (Gibco, Eggenstein), warmed to 37° C., was added. Then the test substances, such as dilutions of a pyrogen, in this case, lipopolysaccharide of Salmonella abortus equi (Sigma, Deisenhofen) were added. After a four-hour incubation at 37° C., for example, in an incubator (Heraeus, Fellbach) with 5% carbon dioxide the incubated samples are shaken and centrifuged. Endogenous pyrogens, IL-1β in this case, are determined in the cell-free supernatant, after freezing, if desired. […] IL-1β was determined by ELISA (enzyme-linked immunosorbent assay) from antibodies from the company Pharmingen (Hamburg).
# [2] = test system: cryopreserved blood from four healthy donors; assay: IL-1β release in thawed cryopreserved whole blood on contact with pyrogen (ELISA); format: cell-based, human; conditions: thawed deep-frozen citrated blood with 10% dimethylsulfoxide, diluted with RPMI 1640, four-hour incubation at 37° C., FIG. 1
# Description: Citrated blood from healthy donors was mixed with 10% dimethylsulfoxide (Merck, Darmstadt) immediately after it was drawn. Aliquots of 100 microliters were distributed in 2 milliliter reaction vessels (Eppendorf, Hamburg) and transferred to a −70° C. cold box in a commercial freezing system (Mr. Freezy, Nalgene). Thawing was done in a thermoshaker (Eppendorf, Hamburg) at 37° C. Immediately after thawing, 900 microliters of RPMI 1640 (Gibco, Eggenstein), warmed to 37° C., was added. Then the test substances, such as dilutions of a pyrogen, in this case, lipopolysaccharide of Salmonella abortus equi (Sigma, Deisenhofen) were added. After a four-hour incubation at 37° C., for example, in an incubator (Heraeus, Fellbach) with 5% carbon dioxide the incubated samples are shaken and centrifuged. Endogenous pyrogens, IL-1β in this case, are determined in the cell-free supernatant, after freezing, if desired. […] IL-1β was determined by ELISA (enzyme-linked immunosorbent assay) from antibodies from the company Pharmingen (Hamburg).
Molecule,release of IL-1 in frozen whole blood stimulated with LPS [1],release of endogenous pyrogens (IL-1β) [2]
Cn1cnc([N+](=O)[O-])c1Sc1ncnc2[nH]cnc12 [azathioprin],dependence of release of IL-1,–
lipopolysaccharide of Salmonella abortus equi,–,release of endogenous pyrogens in the presence of minimal amounts of pyrogens
